Molecules are shown by their SMILES.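 Cultured in 96-well plates, cells were exposed to test compound for 48 hours across five concentrations. TGI: concentration producing complete growth inhibition.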

Some test systems named below: CAKI-1 renal; EKVX NSCLC; HOP-92 NSCLC; PC-3 prostate; SK-MEL-5 melanoma; SK-OV-3 ovarian; TK-10 renal; SK-MEL-2 melanoma; DU-145 prostate; T-47D breast.
Experiment in all cases: NCI anticancer screen, dose series, 48 h

`O=C1CCCC2=C1CC1=C(CCCC1=O)N2c1ccccc1`: the TGI in the assay with CAKI-1 renal, with EKVX NSCLC, in the assay with HOP-92 NSCLC, with PC-3 prostate, in the assay on SK-MEL-5 melanoma and with SK-OV-3 ovarian was > 100 µM each time. Further, the TGI in the assay with TK-10 renal was > 100 µM.

For the compound `CC1C(=O)O[C@H]2C1CC[C@@]1(C)[C@H](O)CC[C@@]13C[C@]2(O)OO3` (stereo not given in full), the TGI in the assay with CAKI-1 renal, in the assay on HOP-92 NSCLC, in the assay on SK-MEL-5 melanoma, in the assay on SK-OV-3 ovarian and in the assay with TK-10 renal was > 100 µM in each case.

On to `CCOP(=O)(OCC)C1=NC=CC=CC1n1c(-c2ccccc2)nn(CC)c1=O` (stereo not given), for which the TGI with CAKI-1 renal, in the assay on EKVX NSCLC, in the assay on HOP-92 NSCLC, in the assay with SK-MEL-2 melanoma, in the assay on SK-MEL-5 melanoma and in the assay with SK-OV-3 ovarian was > 100 µM in each case. In the assay on TK-10 renal, the TGI is > 100 µM.

As for `CCc1nc2ccc(C(F)(F)F)cc2[nH]c1=O`, the TGI with CAKI-1 renal, in the assay with DU-145 prostate, in the assay with EKVX NSCLC, in the assay on HOP-92 NSCLC, in the assay with PC-3 prostate and in the assay with SK-MEL-2 melanoma was > 100 µM throughout. Further, the TGI with SK-MEL-5 melanoma, in the assay with SK-OV-3 ovarian and in the assay on TK-10 renal was > 100 µM throughout.

Regarding `COC(=O)c1ccccc1C1CN=NC12Cc1cccc(C)c1C2=O` (stereo not given), the TGI with CAKI-1 renal, in the assay with DU-145 prostate, in the assay with EKVX NSCLC, in the assay with HOP-92 NSCLC, in the assay on SK-MEL-2 melanoma and in the assay with SK-MEL-5 melanoma was > 100 µM throughout. In addition, the TGI is > 100 µM in the assay with SK-OV-3 ovarian, 56.4 µM in the assay with T-47D breast and > 100 µM in the assay with TK-10 renal.

In the case of `CCSc1nc(N)c2c(-c3ccccc3)c3c(nc2n1)CCC3`, the TGI in the assay on CAKI-1 renal, in the assay on DU-145 prostate, with EKVX NSCLC, in the assay with PC-3 prostate, in the assay on SK-MEL-5 melanoma and in the assay on SK-OV-3 ovarian was > 100 µM each time. In addition, the TGI in the assay with T-47D breast and in the assay with TK-10 renal was > 100 µM in each case.

As to `O=c1c2ccccc2[nH]c2cc(O)cc(O)c12`, the TGI with SK-MEL-2 melanoma was > 100 µM; in the assay with SK-MEL-5 melanoma it was 85 µM; with SK-OV-3 ovarian, > 100 µM; in the assay with TK-10 renal it was > 100 µM.

In the case of `CSc1nc2c(=O)n(-c3ccccc3)c(=S)n(-c3ccccc3)c2s1`, the TGI is > 100 µM with DU-145 prostate; 80.5 µM with HOP-92 NSCLC; > 100 µM in the assay with PC-3 prostate; > 100 µM in the assay with SK-MEL-2 melanoma; > 100 µM in the assay with SK-MEL-5 melanoma; > 100 µM in the assay on SK-OV-3 ovarian. Besides, the TGI in the assay on T-47D breast and in the assay on TK-10 renal was > 100 µM each time.

With `CC(=O)NC(Cc1ccc(OP(=O)(OCc2ccc([N+](=O)[O-])o2)N(C)CCCCCl)cc1)C(=O)NC(C)c1ccc(OCC2CCCCC2)c(C(N)=O)c1` (stereo not given), the TGI is > 100 µM in the assay on CAKI-1 renal; 15.2 µM with DU-145 prostate; 10.5 µM with PC-3 prostate; 9.2 µM with SK-MEL-2 melanoma; 3.08 µM in the assay on SK-MEL-5 melanoma; 37.3 µM in the assay on SK-OV-3 ovarian. The TGI with T-47D breast came out at 6.31 µM; in the assay on TK-10 renal, 32 µM.

`COc1ccccc1NC(=O)O/N=C(/Cl)C(C)C`: the TGI in the assay with DU-145 prostate was determined as 33.2 µM; in the assay with EKVX NSCLC, 29.6 µM; with PC-3 prostate it was 33.2 µM; in the assay on SK-MEL-2 melanoma it was 31 µM; in the assay with SK-MEL-5 melanoma, 24.1 µM; in the assay with SK-OV-3 ovarian, 32.7 µM. The TGI in the assay with T-47D breast was determined as 59.2 µM; in the assay on TK-10 renal it was 26.5 µM.

`CCCCCCC(C)OC(=O)/C=C(\CC(=O)OC(C)CCCCCC)C(=O)OC(C)CCCCCC` (stereo not given): the TGI with CAKI-1 renal, with EKVX NSCLC, in the assay on HOP-92 NSCLC, in the assay with SK-MEL-2 melanoma, with SK-MEL-5 melanoma and in the assay with SK-OV-3 ovarian was > 100 µM in each case. Further, the TGI in the assay with TK-10 renal was > 100 µM.

As for `C(=C\c1cc(-c2ccc3ccccc3n2)nc2ccc3ccccc3c12)/c1ccc2ccccc2n1`, the TGI in the assay with CAKI-1 renal, in the assay with DU-145 prostate, in the assay on EKVX NSCLC, in the assay on PC-3 prostate, in the assay with SK-MEL-5 melanoma and in the assay on SK-OV-3 ovarian was > 100 µM each time. Further, the TGI in the assay on TK-10 renal is > 100 µM.

Turning to `CC(C)(C)c1ccc(C(C)(C)C)c(N2C(=O)C3ON=C(c4ccc([N+](=O)[O-])cc4)C3C2=O)c1` (stereo not given), the TGI in the assay on CAKI-1 renal, in the assay with DU-145 prostate, in the assay with EKVX NSCLC, with HOP-92 NSCLC, in the assay on SK-MEL-5 melanoma and with SK-OV-3 ovarian was > 25 µM in each case. Also, the TGI with T-47D breast and in the assay with TK-10 renal was > 25 µM throughout.

Consider `O=[N+]([O-])c1ccc2c(c1)c(S(=O)(=O)O)cc1nonc12`, for which the TGI in the assay on CAKI-1 renal, in the assay on EKVX NSCLC, in the assay on HOP-92 NSCLC, with PC-3 prostate, in the assay on SK-MEL-2 melanoma and in the assay with SK-MEL-5 melanoma was > 100 µM in each case. Besides, the TGI in the assay with SK-OV-3 ovarian, in the assay on T-47D breast and in the assay with TK-10 renal was > 100 µM throughout.

On to `CCN(CC)CCCC(C)NC(=O)c1ccc2c(c1)C(=O)c1ccccc1C2=O` (stereo not given), for which the TGI with CAKI-1 renal was 79.3 µM; in the assay on EKVX NSCLC, 55.8 µM; in the assay with HOP-92 NSCLC it was 63.7 µM; in the assay with SK-MEL-2 melanoma it was 38.9 µM; in the assay on SK-MEL-5 melanoma it was 28.4 µM; in the assay with SK-OV-3 ovarian it was > 93.6 µM. The TGI with TK-10 renal is 66.5 µM.

`Cc1nc(C(N)=S)sc1C(=O)C/C(=N/N)C(=O)Nc1ccc(Cl)cc1`: the TGI with CAKI-1 renal, with EKVX NSCLC, in the assay with PC-3 prostate, in the assay on SK-MEL-2 melanoma, with SK-MEL-5 melanoma and with SK-OV-3 ovarian was > 100 µM each time. Further, the TGI with T-47D breast and with TK-10 renal was > 100 µM throughout.

As to `CC(=O)OCC1OC(O/C=C(\CN=[N+]=[N-])C(C)=O)C(OC(C)=O)C(OC(C)=O)C1OC(C)=O` (stereo not given), the TGI in the assay with CAKI-1 renal is 10.1 µM; with EKVX NSCLC, 34.7 µM; in the assay with HOP-92 NSCLC, 56.6 µM; with PC-3 prostate, 27.8 µM; in the assay on SK-MEL-2 melanoma, 37.2 µM; in the assay on SK-MEL-5 melanoma it was 26.2 µM. Moreover, the TGI with SK-OV-3 ovarian is > 100 µM; in the assay with T-47D breast, 13.4 µM; in the assay on TK-10 renal it was 19.1 µM.

Take `NS(=O)(=O)c1nnc(NS(=O)(=O)c2ccccc2C(=O)O)s1`: the TGI in the assay on CAKI-1 renal, with DU-145 prostate, in the assay with EKVX NSCLC, in the assay on HOP-92 NSCLC, in the assay on SK-MEL-2 melanoma and in the assay with SK-MEL-5 melanoma was > 100 µM throughout. Also, the TGI in the assay with SK-OV-3 ovarian, in the assay on T-47D breast and with TK-10 renal was > 100 µM throughout.

Take `Clc1c(C(Cl)(Cl)Cl)nsc1N1CCCCC1`: the TGI with CAKI-1 renal was 55.2 µM; in the assay with DU-145 prostate, > 100 µM; in the assay on EKVX NSCLC it was 79.7 µM; in the assay on PC-3 prostate it was 95.3 µM; in the assay on SK-MEL-5 melanoma it was 29.6 µM; with SK-OV-3 ovarian, 78.9 µM. The TGI in the assay with TK-10 renal was > 100 µM.

Regarding `CC(C)C(=O)/C=C/c1ccc(Cl)c(Cl)c1`, the TGI in the assay on EKVX NSCLC is 51.4 µM; in the assay with HOP-92 NSCLC, 34.7 µM; in the assay on SK-MEL-2 melanoma it was 31.9 µM; in the assay on SK-MEL-5 melanoma it was 28.8 µM; in the assay with SK-OV-3 ovarian, 70.3 µM; in the assay on TK-10 renal, 28.8 µM.

As for `O=[N+]([O-])c1ccc(Cl)cc1N/N=C/c1cccc2cccnc12`, the TGI in the assay with CAKI-1 renal, in the assay on DU-145 prostate, with EKVX NSCLC, with PC-3 prostate, in the assay with SK-MEL-5 melanoma and in the assay on SK-OV-3 ovarian was > 100 µM throughout. The TGI in the assay with T-47D breast and in the assay on TK-10 renal was > 100 µM in each case.

Turning to `O=C1c2ccccc2C(=O)c2c(O)ccc(O)c21`, the TGI in the assay with CAKI-1 renal, in the assay on EKVX NSCLC, in the assay on HOP-92 NSCLC, in the assay on SK-MEL-2 melanoma, in the assay with SK-MEL-5 melanoma and with SK-OV-3 ovarian was > 100 µM throughout. Also, the TGI with TK-10 renal was > 100 µM.

For `COc1cc(C2c3cc4c(cc3[C@@H](Nc3cccc([N+](=O)[O-])c3)C3COC(=O)[C@H]23)OCO4)cc(OC)c1O` (stereo not given in full), the TGI in the assay on CAKI-1 renal is 7.46 µM; in the assay on EKVX NSCLC, > 38.2 µM; with HOP-92 NSCLC, 27.7 µM; in the assay with SK-MEL-2 melanoma, 36.5 µM; in the assay with SK-MEL-5 melanoma it was 7.87 µM; in the assay with SK-OV-3 ovarian, 9.67 µM.

In the case of `CC(C)C1CC[C@H](C)C[C@@H]1OC(=O)C(C(=O)O[C@H]1C[C@@H](C)CCC1C(C)C)C(O)[C@@H]1OC(C)(C)O[C@H]1C1COC(C)(C)O1` (stereo not given in full), the TGI is 34.6 µM in the assay on CAKI-1 renal; 44.5 µM in the assay with DU-145 prostate; 41.8 µM in the assay on EKVX NSCLC; 38.2 µM with SK-MEL-2 melanoma; 29.2 µM with SK-MEL-5 melanoma; 65.4 µM in the assay on SK-OV-3 ovarian. Also, the figures for the TGI with T-47D breast and in the assay on TK-10 renal were 32.3 µM and 37.1 µM, respectively.

For the compound `CS(=O)(=O)OCCCOS(C)(=O)=O`, the TGI with EKVX NSCLC, in the assay with HOP-92 NSCLC, with SK-MEL-2 melanoma, with SK-MEL-5 melanoma, with SK-OV-3 ovarian and with TK-10 renal was > 100 µM throughout.

(Values after PubChem BioAssay (NCI).)
